Source: publication PMC8190631, “Molecular Interactions between Two LMP2A PY Motifs of EBV and WW Domains of E3 Ubiquitin Ligase AIP4” (Life, 2021)
pKd: −log10 of the molar value. Ends that are not written are not given here.

Molecular target: T1, WW2 domain of human AIP4 (Homo sapiens, UniProt Q96J02)
T1 construct: The gene (114 bp) encoding the WW2 domain of human AIP4; Ssp DnaB intein (pTWIN1) (N, cleaved yes); made in house
Assay: NMR titration (2D 1H-15N HSQC chemical shift perturbation) of WW2 domain with LMP2A constructs
Type: binding

T1 sequence (Q96J02 359-391): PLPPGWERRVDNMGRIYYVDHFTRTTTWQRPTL

For PPPPY [PY peptide], the pKd was 3.41.
